# Tests used:
# PC-3 [1] = experiment: Induction of apoptosis in human PC3 cells assessed as caspase 3A positive cells at 0.1 uM after 24 hrs by flow cytometry (reference value: 2.45%); type: functional
# PC-3 [2] = experiment: Induction of apoptosis in human PC3 cells assessed as late apoptotic cells at 1 uM after 24 hrs by Annexin-V FITC/7-AAD staining based flow cytometry (reference value: 0.31%); type: functional
# PC-3 [3] = experiment: Induction of apoptosis in human PC3 cells assessed as live cells at 1 uM after 24 hrs by Annexin-V FITC/7-AAD staining based flow cytometry (reference value: 98.8%); type: functional
# PC-3 [4] = experiment: Induction of apoptosis in human PC3 cells assessed as early apoptotic cells at 10 uM after 24 hrs by Annexin-V FITC/7-AAD staining based flow cytometry (reference value: 0.1%); type: functional
# PC-3 [5] = experiment: Induction of apoptosis in human PC3 cells assessed as increase in p53 protein expression after 48 hrs by Western blot method; type: functional, cell-based
# PC-3 [6] = experiment: Induction of apoptosis in human PC3 cells assessed as caspase 3A negative cells at 0.1 uM after 24 hrs by flow cytometry (reference value: 97.5%); type: functional
# MDA-MB-231 = experiment: Antiproliferative activity against human MDA-MB-231 cells after 48 hrs by MTT assay; type: functional, cell-based; details: MDA-MB-231, 48 h
# PC-3 [7] = experiment: Induction of apoptosis in human PC3 cells assessed as live cells at 10 uM after 24 hrs by Annexin-V FITC/7-AAD staining based flow cytometry (reference value: 98.8%); type: functional
# PC-3 [8] = experiment: Induction of apoptosis in human PC3 cells assessed as necrotic cells at 0.1 uM after 24 hrs by Annexin-V FITC/7-AAD staining based flow cytometry (reference value: 0.02%); type: functional
# PC-3 [9] = experiment: Induction of apoptosis in human PC3 cells assessed as late apoptotic cells at 0.1 uM after 24 hrs by Annexin-V FITC/7-AAD staining based flow cytometry (reference value: 0.31%); type: functional
# K562 = experiment: Antiproliferative activity against human K562 cells after 48 hrs by MTT assay; type: functional, cell-based; details: K562, 48 h
# PC-3 [10] = experiment: Induction of apoptosis in human PC3 cells assessed as caspase 3A negative cells at 1 uM after 24 hrs by flow cytometry (reference value: 97.5%); type: functional
# PC-3 [11] = experiment: Induction of apoptosis in human PC3 cells assessed as late apoptotic cells at 10 uM after 24 hrs by Annexin-V FITC/7-AAD staining based flow cytometry (reference value: 0.31%); type: functional
# PC-3 [12] = experiment: Induction of apoptosis in human PC3 cells assessed as necrotic cells at 10 uM after 24 hrs by Annexin-V FITC/7-AAD staining based flow cytometry (reference value: 0.02%); type: functional
# PC-3 [13] = experiment: Induction of apoptosis in human PC3 cells assessed as caspase 3A positive cells at 1 uM after 24 hrs by flow cytometry (reference value: 2.45%); type: functional
# PC-3 [14] = experiment: Induction of apoptosis in human PC3 cells assessed as increase in caspase-3 protein expression after 48 hrs by Western blot method; type: functional, cell-based
# PC-3 [15] = experiment: Induction of apoptosis in human PC3 cells assessed as early apoptotic cells at 1 uM after 24 hrs by Annexin-V FITC/7-AAD staining based flow cytometry (reference value: 0.1%); type: functional
# PC-3 [16] = experiment: Induction of apoptosis in human PC3 cells assessed as early apoptotic cells at 0.1 uM after 24 hrs by Annexin-V FITC/7-AAD staining based flow cytometry (reference value: 0.1%); type: functional
# PC-3 [17] = experiment: Induction of apoptosis in human PC3 cells assessed as caspase 3A negative cells at 10 uM after 24 hrs by flow cytometry (reference value: 97.5%); type: functional
# PC-3 [18] = experiment: Antiproliferative activity against human PC3 cells after 48 hrs by MTT assay; type: functional, cell-based; details: PC-3, 48 h
# PC-3 [19] = experiment: Induction of apoptosis in human PC3 cells assessed as live cells at 0.1 uM after 24 hrs by Annexin-V FITC/7-AAD staining based flow cytometry (reference value: 98.8%); type: functional
# A549 = experiment: Antiproliferative activity against human A549 cells after 48 hrs by MTT assay; type: functional, cell-based; details: A549, 48 h
# PC-3 [20] = experiment: Induction of apoptosis in human PC3 cells assessed as caspase 3A positive cells at 10 uM after 24 hrs by flow cytometry (reference value: 2.45%); type: functional
# PC-3 [21] = experiment: Induction of apoptosis in human PC3 cells assessed as increase in active caspase 3A after 24 hrs by flow cytometry; type: functional, cell-based
# PC-3 [22] = experiment: Induction of apoptosis in human PC3 cells assessed as necrotic cells at 1 uM after 24 hrs by Annexin-V FITC/7-AAD staining based flow cytometry (reference value: 0.02%); type: functional
# PC-3 [23] = experiment: Induction of apoptosis in human PC3 cells assessed as downregulation of Bcl2 protein expression after 48 hrs by Western blot method; type: functional, cell-based
smiles,measurement,setting,value
C/C=C(/CO)[C@H]1C[C@@H]2c3[nH]c4ccccc4c3C[C@H]3N2C(=O)[C@@]13COC,Activity,PC-3 [1],2.89%
same,Activity,PC-3 [2],1.14%
same,Activity,PC-3 [3],97.3%
same,Activity,PC-3 [4],6.25%
same,Activity,PC-3 [5],Dose-dependent effect
same,Activity,PC-3 [6],97.1%
same,IC50,MDA-MB-231,1840 nM
same,Activity,PC-3 [7],79.7%
same,Activity,PC-3 [8],0.85%
same,Activity,PC-3 [9],0.56%
same,IC50,K562,1220 nM
same,Activity,PC-3 [10],95.9%
same,Activity,PC-3 [11],8.97%
same,Activity,PC-3 [12],5.05%
same,Activity,PC-3 [13],4.1%
same,Activity,PC-3 [14],Dose-dependent effect
same,Activity,PC-3 [15],0.7%
same,Activity,PC-3 [16],0.27%
same,Activity,PC-3 [17],89.1%
same,IC50,PC-3 [18],740 nM
same,Activity,PC-3 [19],98.3%
same,IC50,A549,3260 nM
same,Activity,PC-3 [20],10.9%
same,Activity,PC-3 [21],Dose-dependent effect
same,Activity,PC-3 [22],0.87%
same,Activity,PC-3 [23],Dose-dependent effect
